According to PubChem BioAssay (NCI):
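A five-concentration, 48-hour dose response in 96-well plates underlies each endpoint, interpolated linearly between surrounding concentrations. TGI: total growth inhibition.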 Where a SMILES comes first, the peptide text is derived from it. [ ]: non-standard residue; d: D form. The star is where a group is joined. hSer = N[CH](CCO)C(=O)O; Boc = CC(C)(C)OC(=O)*

How the values were obtained:
Assay in all cases: DTP human tumour cell line panel, 48 h
HL-60(TB) leukemia = system: HL-60(TB) leukemia
HOP-92 NSCLC = system: HOP-92 NSCLC
786-0 renal = system: 786-0 renal
HCT-116 colon = system: HCT-116 colon
HT29 colon = system: HT29 colon
SW-620 colon = system: SW-620 colon
OVCAR-8 ovarian = system: OVCAR-8 ovarian
SF-539 CNS = system: SF-539 CNS
OVCAR-4 ovarian = system: OVCAR-4 ovarian
SNB-75 CNS = system: SNB-75 CNS

Row | Compound | TGI (HL-60(TB) leukemia) [µM] | TGI (HOP-92 NSCLC) [µM] | TGI (786-0 renal) [µM] | TGI (HCT-116 colon) [µM] | TGI (HT29 colon) [µM] | TGI (SW-620 colon) [µM] | TGI (OVCAR-8 ovarian) [µM] | TGI (SF-539 CNS) [µM] | TGI (OVCAR-4 ovarian) [µM] | TGI (SNB-75 CNS) [µM]
1 | COC(=O)/C(=C/c1ccc(OC)cc1)C(C(=O)O)=C(C)C | > 100 | > 100 | > 100 | > 100 | > 100 | > 100 | > 100 | > 100 | – | –
2 | COc1ccc2nc3ccc(OC)cc3c(S(=O)Cc3ccc([N+](=O)[O-])cc3)c2c1 (stereo not drawn) | 6.97 | > 23.5 | 4.26 | 3.12 | 6.33 | – | 13.1 | 7.25 | 23.7 | 35.9
3 | O=C(C=P(c1ccccc1)(c1ccccc1)c1ccccc1)C12CC3CC(CC(C3)C1)C2 | 27.1 | 43.2 | 33.4 | 29.4 | 23.2 | 34.9 | 34.5 | 37 | 52.9 | 33.3
4 | COc1ccc(C[C@@H]2CN(C(=O)c3ccccc3)[C@H](Cc3ccc(O)cc3)CN2C(=O)c2ccccc2)cc1Br | > 100 | > 100 | > 100 | > 100 | > 100 | > 100 | > 100 | > 100 | > 100 | > 100
5 | CCOC(=O)CC(C)C(C#N)(OP1(=O)OC(c2ccccc2)C(C)N1C)c1ccccc1 (stereo not drawn) | 78.7 | > 100 | > 100 | > 100 | > 100 | > 100 | > 100 | > 100 | – | –
6 | Cc1c(C)c(C)c(-n2c(=O)n(C)c(=O)n2C(C)(C)C)c(C)c1C | > 100 | > 100 | > 100 | > 100 | – | > 100 | – | > 100 | > 100 | > 100
7 | O=c1[nH]cnc2c1nnn2CCCn1nnc2c(=O)[nH]cnc21 | > 100 | > 100 | > 100 | > 100 | > 100 | > 100 | > 100 | > 100 | > 100 | –
8 | CC1C(c2ccc(N(C)C)cc2)c2cc3c(cc2OC1N1CCCC1)OCO3 (stereo not drawn) | 73.6 | > 100 | > 100 | > 100 | > 81.9 | > 100 | > 100 | 60.2 | > 100 | > 73
9 | CCC1(O)C=CC(=O)C=C1 | > 100 | 75.9 | 39.2 | > 100 | > 100 | > 100 | > 100 | 50.6 | > 100 | > 96.1
10 | CCOC(=O)NNC(=O)NCCNC(=O)NNC(=O)OCC | > 100 | – | > 100 | > 100 | > 100 | > 100 | > 100 | > 100 | > 100 | > 100
11 | O=C(Cc1ccc(Cl)c(Cl)c1)NCCCN1CCN(CCCN2CCCCC2)CC1 | 37.2 | 24.8 | 31.7 | 32.9 | 29.9 | 46.7 | > 100 | 28.8 | > 100 | 49.3
12 | COc1ccc(-n2sc3ncc(-c4ccccc4)cc3c2=O)cc1 | > 100 | > 100 | 39.3 | 57.8 | – | > 100 | > 100 | – | 45.7 | > 100
13 | CCOC(=O)C1NCCc2c1[nH]c1ccccc21 (stereo not drawn) | > 10 | > 10 | > 10 | – | > 10 | > 10 | > 10 | – | > 10 | > 10
14 | COCCC(NC(=O)C(CC(C)C)NC(=O)OC(C)(C)C)C(N)=O (stereo not drawn) (Boc-Leu-[hSer](Me)-NH2; configuration not given here) | > 100 | > 100 | > 100 | > 100 | > 100 | > 100 | > 100 | > 100 | > 100 | > 100
15 | COc1ccc(NC(=S)NN=C(C)c2cccc(C(C)=NNC(=S)Nc3ccc(OC)cc3)n2)cc1 | > 100 | > 100 | > 100 | > 100 | > 100 | > 100 | > 100 | > 100 | > 100 | > 100
16 | OCC(O)COc1ccc(Br)cc1 (stereo not drawn) | > 100 | > 100 | – | > 100 | > 100 | > 100 | > 100 | > 100 | > 100 | > 100
17 | c1cc(-c2cscc2-c2ccsc2)cs1 | > 100 | > 100 | > 100 | > 100 | > 100 | > 100 | – | 59.5 | > 100 | > 100
18 | COc1cc2c(cc1OC)C(=O)N(c1ccc(O)cc1)C2 | > 100 | > 100 | > 100 | > 100 | > 100 | > 100 | > 100 | > 100 | > 100 | –
19 | Nc1c(Br)cc(-c2cc(Br)c(N)c(Br)c2)cc1Br | > 100 | > 100 | > 100 | > 100 | > 100 | > 100 | > 100 | > 100 | > 100 | > 100
20 | COc1ccc(-n2c(CCCC(=O)O)nc3c2C(=O)c2ccccc2C3=O)cc1 | > 100 | > 100 | > 100 | > 100 | – | > 100 | > 100 | > 100 | > 100 | > 100
21 | COC1/C=C\C=C(/C)C(=O)NC2=CC(=O)C(NCCCl)=C(CC(C)CC(OC)C(O)C(C)/C=C(/C)C1OC(N)=O)C2=O (stereo not drawn) | 3.23 | 18.6 | 9.05 | 2.88 | 1.92 | 2.55 | 10.5 | 2.17 | 15 | 3.81
22 | COc1ccc2c(c1O)-c1c(OC)c(OC)cc3c1[C@H](C2)[N+](C)(C)CC3 | > 100 | > 100 | > 100 | > 100 | > 100 | > 100 | > 100 | > 100 | > 100 | > 100
